One data set is described as follows: Acute toxicity. As to conditions: mouse, in vivo, ip, read-out: Toxicity LD 50. The protocol: The substances are administered intraperitoneally to groups of 5-10 female NMRI mice.
Data set [1] deals with female Sprague-Dawley rats. Kind of data set: Apomorphine-antagonistic effect: apomorphine-triggered jaw motions (mandibulogram). It counts as in vivo. As to conditions: for ED50: Rattus norvegicus, sc, read-out: Apomorphine antagonism ED 50%, female Sprague-Dawley rats, 1.5 mg of apomorphine/kg s.c., dose which reduces number of jaw movements by 50%; for Apomorphine-antagonistic effect (in words): result in words. The protocol:
4. Apomorphine-antagonistic effect
Jaw motions are triggered in groups of 4-6 female Sprague-Dawley rats by subcutaneous administration of 1.5 mg of apomorphine/kg, and are recorded by means of implanted electrodes (KUBACKI mandibulogram, 1978).

Data set [2] has as its system female NMRI mice. Description: Sedative effect: orientation hypermotility in a new environment, measured photoelectrically. It counts as in vivo. As to conditions: for ED50: Mus musculus, 0.5 h, read-out: Sedative effect ED 50%, oral, female NMRI mice, dose which reduces orientation hypermotility by 50% vs untreated controls, 30 min after administration; for Sedative effect (in words): result in words. The protocol: The substances are administered orally to groups of 4×3 or 8×3 female NMRI mice. The orientation hypermotility induced by a new environment is determined photoelectrically, 30 minutes after the administration of the substances, for a period of 30 minutes.

Data set [3] deals with female NMRI mice. Kind of data set: Anti-cholinergic effect: protection against death from Physostigmin. The class given is in vivo. As to conditions: for ED50: Mus musculus, read-out: Anti-cholinergic effect ED 50%, oral, 30 min before Physostigmin 0.825 mg/kg s.c., female NMRI mice, dose which protects 50% of animals against death; for Anti-cholinergic effect (in words): result in words, Physostigmin antagonism; for Anti-cholinergic effect R.A. (relative activity): Clozapin = 1.00. The method, then:
3. Anti-cholinergic effect
A lethal dose (0.825 mg/kg) of Physostigmin is administered subcutaneously to groups of 10 female NMRI mice. The test substances are administered orally 30 minutes before administering the Physostigmin.

Data set [4] relates to female NMRI mice. Description: Analgesic effect: D'amour and Smith tail-flick method. It counts as in vivo. As to conditions: result in words. For orientation: Hot-plate and tail-flick tests time the reaction to a heat stimulus.
Experimental: The analgesic effect is determined by means of the D'amour and Smith (1941) tail-flick method. In this, the substances are administered intraperitoneally to groups of 10 female NMRI mice. The pain reaction is triggered 30 minutes after administration. The reaction time, until the tail is flicked out of the way after exposure to a focused light beam, is measured.
The mark [5] stands for this setting: intraperitoneal, female NMRI mice, dose which causes death of 50% of animals.

“Also recorded” adds a separate entry of the source. Where a name gives a salt, the structure may show the parent alone. Read-outs that look alike come from different tables or passages of the source.

From patent US4336192A, “5,6-Dihydro-11-alkylene-morphanthridin-6-ones” (BASF Aktiengesellschaft, priority 1979, dated 1982) come the findings set out here.

As to `CCN1CCN(C2=Nc3ccccc3C(=CC#N)c3ccccc32)CC1` (mixture of isomers) [Example 36 (cis-trans mixture), cis,trans-11-Cyanomethylene-6-(4-ethyl-piperazin-1-yl)-morphanthridine], the LD50 in the data set “Acute toxicity” was found to be 100 mg/kg. Besides, the ED50 in data set [1] amounted to 43 mg/kg. Also, in the data set on female NMRI mice [2], the ED50 was 3.34 mg/kg and the “Sedative effect (in words)” value is reported as “relatively strong sedative effects”. In addition, in the data set with female NMRI mice [3], the ED50 was 7.8 mg/kg and the “Anti-cholinergic effect (in words)” value is on record as “manifests itself especially”.
As to `C[N+]1([O-])CCN(C2=Nc3ccccc3/C(=C\C#N)c3ccccc32)CC1` [Example 44 (trans-isomer), trans-11-cyanomethylene-6-(4-methyl-4-oxy-piperazin-1-yl)-morphanthridine], in the data set “Acute toxicity” (setting [5]), the LD50 is 559 mg/kg. In data set [1], the ED50 is 25 mg/kg; the “Apomorphine-antagonistic effect (in words)” value is “stronger anti-cholinergic and apomorphine-antagonistic effect”. Further, in the data set on female NMRI mice [2], the ED50 came out at 100 mg/kg and the “Sedative effect (in words)” value was “little or no sedative effect”. In addition, in the data set on female NMRI mice [3], the ED50 worked out at 3.74 mg/kg; the “Anti-cholinergic effect R.A. (relative activity)” value came to 3.77; the “Anti-cholinergic effect (in words)” value is “manifests itself especially; also recorded: stronger anti-cholinergic and apomorphine-antagonistic effect”.
As for `Cc1ccc2c(c1)N=C(N1CCN(C)CC1)c1ccccc1/C2=C\C#N` [Example 30 (cis-isomer), cis-3-methyl-11-cyanomethylene-6-(4-methyl-piperazin-1-yl)-morphanthridine], the LD50 in the data set “Acute toxicity” came out at 287 mg/kg. Also, in data set [1], the ED50 is 85 mg/kg; the “Apomorphine-antagonistic effect (in words)” value was “weaker apomorphine-antagonistic effect than that of Clozapin and Perlapin”. In addition, in the data set with female NMRI mice [2], the ED50 stood at 1.06 mg/kg; the “Sedative effect (in words)” value was “strong sedative and strong analgesic effects”. Further, the “Analgesic effect (in words)” value in the data set on female NMRI mice [4] was “substantially more active than Clozapin; also recorded: strong sedative and strong analgesic effects”.
With `CN1CCN(C2=Nc3ccccc3/C(=C\C#N)c3ccccc32)CC1` [Example 17 (trans-isomer), trans-11-cyanomethylene-6-(4-methyl-piperazin-1-yl)-morphanthridine], the LD50 in the data set “Acute toxicity” (setting [5]) stood at 332 mg/kg. In addition, in data set [1], the ED50 was 12 mg/kg; the “Apomorphine-antagonistic effect (in words)” value was “particularly exhibits an anti-cholinergic and apomorphine-antagonistic effect”. In the data set on female NMRI mice [2], the ED50 is greater than 21.5 mg/kg and the “Sedative effect (in words)” value is listed as “very slight”. Further, in the data set with female NMRI mice [3], the ED50 was found to be 4.7 mg/kg; the “Anti-cholinergic effect (in words)” value is “manifests itself especially; also recorded: particularly exhibits an anti-cholinergic and apomorphine-antagonistic effect”.
For `N#CC=C1c2ccccc2N=C(N2CCCNCC2)c2ccccc21` (mixture of isomers) [Example 37 (cis-trans mixture), cis,trans-11-Cyanomethylene-6-homopiperazin-1-yl-morphanthridine.HCl.H2 O], in “Acute toxicity” (setting [5]), the LD50 stood at 69.8 mg/kg. Further, the ED50 in data set [1] was greater than 100 mg/kg. The ED50 with female NMRI mice [2] was greater than 21.5 mg/kg. In the data set with female NMRI mice [3], the ED50 came to 5.49 mg/kg, the “Anti-cholinergic effect R.A. (relative activity)” value stood at 2.57 and the “Anti-cholinergic effect (in words)” value is recorded as “manifests itself especially”.
`Cc1ccc2c(c1)N=C(N1CCN(C)CC1)c1ccccc1C2=CC#N` (mixture of isomers) [Example 30 (cis-trans mixture), cis,trans-3-Methyl-11-cyanomethylene-6-(4-methylpiperazin-1-yl)-morphanthridine]: in “Acute toxicity” (setting [5]), the LD50 stood at 178 mg/kg. In data set [1], the ED50 was 35 mg/kg. Also, in the data set on female NMRI mice [2], the ED50 was determined as 0.804 mg/kg; the “Sedative effect (in words)” value is “strong sedative effects; also recorded: high sedative activity (greater than that of Clozapin and Perlapin)”. Besides, the “Analgesic effect (in words)” value with female NMRI mice [4] is “An analgesic effect is found; also recorded: stronger analgesic effect”. Moreover, in the data set with female NMRI mice [3], the ED50 was 31.2 mg/kg, the “Anti-cholinergic effect R.A. (relative activity)” value worked out at 0.45 and the “Anti-cholinergic effect (in words)” value is “moderate anti-cholinergic effect”.
As to `CN1CCN(C2=Nc3ccccc3C(=CC#N)c3ccccc32)CC1` (mixture of isomers) [Example 17 (cis-trans mixture), cis,trans-11-cyanomethylene-6-(4-methyl-piperazin-1-yl)-morphanthridine], the LD50 in “Acute toxicity” stood at 121 mg/kg. For the same compound, in data set [1], the ED50 stood at 22 mg/kg and the “Apomorphine-antagonistic effect (in words)” value is reported as “somewhat weaker than that of Clozapin”. For the same compound, in the data set on female NMRI mice [2], the ED50 amounted to 2.78 mg/kg and the “Sedative effect (in words)” value was “relatively strong sedative effects; also recorded: more strongly sedative”. Besides, the “Analgesic effect (in words)” value in the data set with female NMRI mice [4] is listed as “not analgesically active”. Moreover, in the data set on female NMRI mice [3], the ED50 was determined as 6.26 mg/kg; the “Anti-cholinergic effect (in words)” value was “manifests itself especially; also recorded: more strongly sedative and anti-cholinergic”.
As for `C[N+]1([O-])CCN(C2=Nc3ccccc3/C(=C/C#N)c3ccccc32)CC1` [Example 44 (cis-isomer), cis-11-cyanomethylene-6-(4-methyl-4-oxy-piperazin-1-yl)-morphanthridine], the LD50 in “Acute toxicity” (setting [5]) is 261 mg/kg. The ED50 in data set [1] was greater than 100 mg/kg; in the data set with female NMRI mice [2], 17.6 mg/kg; in the data set with female NMRI mice [3], 100 mg/kg. Also, the “Anti-cholinergic effect R.A. (relative activity)” value with female NMRI mice [3] worked out at 0.14.
Turning to `CN1CCN(C2=Nc3ccccc3/C(=C/C#N)c3ccccc32)CC1` [Example 17 (cis-isomer), cis 11-cyanomethylene-6-(4-methylpiperazin-1-yl)-morphanthridine], the LD50 in “Acute toxicity” was determined as 147 mg/kg. Further, in data set [1], the ED50 was 46 mg/kg and the “Apomorphine-antagonistic effect (in words)” value was “lower apomorphine-antagonistic effect”. In addition, in the data set on female NMRI mice [2], the ED50 amounted to 1.98 mg/kg and the “Sedative effect (in words)” value is reported as “strong sedative effects; also recorded: responsible for the sedative effect”. In the data set with female NMRI mice [3], the ED50 is 17.4 mg/kg and the “Anti-cholinergic effect (in words)” value is given as “relative to Clozapin, an approximately comparable anti-cholinergic effect”.
Turning to `Cc1ccc2c(c1)C(=CC#N)c1ccccc1C(N1CCN(C)CC1)=N2` (mixture of isomers) [Example 31 (cis-trans mixture), cis,trans-2-Methyl-11-cyanomethylene-6-(4-methylpiperazin-1-yl)-morphanthridine], the LD50 in the data set “Acute toxicity” (setting [5]) was determined as 50 mg/kg. In addition, the ED50 in data set [1] is 42 mg/kg. Besides, in the data set with female NMRI mice [2], the ED50 worked out at 3.35 mg/kg and the “Sedative effect (in words)” value was “relatively strong sedative effects”. For the same compound, in the data set on female NMRI mice [3], the ED50 came to 2.74 mg/kg and the “Anti-cholinergic effect (in words)” value was “manifests itself especially”.
Turning to `Cc1ccc2c(c1)N=C(N1CCN(C)CC1)c1ccccc1/C2=C/C#N` [Example 30 (trans-isomer), trans-3-methyl-11-cyanomethylene-6-(4-methylpiperazin-1-yl)-morphanthridine], the LD50 in “Acute toxicity” (setting [5]) is greater than 100 mg/kg. In addition, in data set [1], the ED50 turned out to be 19 mg/kg; the “Apomorphine-antagonistic effect (in words)” value was “stronger anti-cholinergic and apomorphine-antagonistic effect”. Moreover, in the data set with female NMRI mice [2], the ED50 was found to be 33.6 mg/kg and the “Sedative effect (in words)” value was “little or no sedative effect”. Besides, in the data set with female NMRI mice [3], the ED50 was 12.3 mg/kg; the “Anti-cholinergic effect (in words)” value is “stronger anti-cholinergic and apomorphine-antagonistic effect”.
Take `CN1CCN(C2=Nc3cc(Cl)ccc3Nc3ccccc32)CC1` [Clozapin, reference compound]: the LD50 in the data set “Acute toxicity” (setting [5]) was 215 mg/kg. Further, the ED50 came out at 8 mg/kg in data set [1], 4.74 mg/kg in the data set with female NMRI mice [2] and 14.1 mg/kg in the data set with female NMRI mice [3]. The “Anti-cholinergic effect R.A. (relative activity)” value in the data set with female NMRI mice [3] was 1.00.
On to `C[N+]1([O-])CCN(C2=Nc3ccccc3C(=CC#N)c3ccccc32)CC1` (mixture of isomers) [Example 44 (cis-trans mixture), cis,trans-11-Cyanomethylene-6-(4-methyl-4-oxy-piperazin-1-yl)-morphanthridine.2H2 O], for which the LD50 in “Acute toxicity” (setting [5]) is 464 mg/kg. For the same compound, the ED50 in data set [1] was 85 mg/kg. For the same compound, the ED50 with female NMRI mice [2] was determined as 14.3 mg/kg. In the data set with female NMRI mice [3], the ED50 was determined as 1.98 mg/kg, the “Anti-cholinergic effect R.A. (relative activity)” value was 7.12 and the “Anti-cholinergic effect (in words)” value was “manifests itself especially”.
For the compound `CCN1CCN(C2=Nc3ccccc3/C(=C\C#N)c3ccccc32)CC1` [Example 36 (trans-isomer), trans-11-cyanomethylene-6-(4-ethyl-piperazin-1-yl)-morphanthridine], the LD50 in the data set “Acute toxicity” (setting [5]) is greater than 100 mg/kg. Further, in data set [1], the ED50 came out at 22 mg/kg; the “Apomorphine-antagonistic effect (in words)” value is “stronger anti-cholinergic and apomorphine-antagonistic effect”. Also, in the data set with female NMRI mice [2], the ED50 was greater than 100 mg/kg and the “Sedative effect (in words)” value was “little or no sedative effect”. In the data set on female NMRI mice [3], the ED50 was 5.6 mg/kg; the “Anti-cholinergic effect (in words)” value was “manifests itself especially; also recorded: stronger anti-cholinergic and apomorphine-antagonistic effect”.
